Data from patent US20160159774A1 (Celgene Avilomics Research, Inc., priority 2014, published 2016).

Assays:
[1] = biological target: T1, BTK in Ramos human Burkitt lymphoma cells (Homo sapiens, UniProt Q06187); assay: BTK Ramos cellular assay (BTK occupancy); type: cell-based; settings: concentration producing 50% occupancy of BTK, 1 hour incubation with compound
T1 construct: Compounds of this invention were assayed in Ramos human Burkitt lymphoma cells; endogenous in cells; host or cells: Ramos human Burkitt lymphoma cells
T1 sequence (Q06187 whole entry): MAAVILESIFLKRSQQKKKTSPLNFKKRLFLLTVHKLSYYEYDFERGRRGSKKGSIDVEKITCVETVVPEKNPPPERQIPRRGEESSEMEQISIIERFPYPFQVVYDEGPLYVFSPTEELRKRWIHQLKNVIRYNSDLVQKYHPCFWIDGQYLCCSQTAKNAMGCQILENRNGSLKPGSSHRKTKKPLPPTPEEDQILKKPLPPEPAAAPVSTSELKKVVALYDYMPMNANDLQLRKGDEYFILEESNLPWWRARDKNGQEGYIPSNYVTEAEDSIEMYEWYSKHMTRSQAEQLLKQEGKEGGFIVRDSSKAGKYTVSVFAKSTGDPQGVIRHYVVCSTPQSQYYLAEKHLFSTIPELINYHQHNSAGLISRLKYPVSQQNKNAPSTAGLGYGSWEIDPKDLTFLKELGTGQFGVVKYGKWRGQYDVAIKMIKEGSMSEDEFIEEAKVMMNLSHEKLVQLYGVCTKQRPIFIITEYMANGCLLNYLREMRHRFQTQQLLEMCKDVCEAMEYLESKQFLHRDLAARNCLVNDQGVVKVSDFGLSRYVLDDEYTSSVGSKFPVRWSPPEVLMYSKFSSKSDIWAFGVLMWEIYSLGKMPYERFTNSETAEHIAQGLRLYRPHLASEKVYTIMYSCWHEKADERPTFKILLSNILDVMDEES
Description: BTK activity in Ramos cells, in the presence of a compound of the invention, can be measured by 3 different methods: 1) inhibition of autophosphorylation of BTK; 2) inhibition of phosphorylation of the immediate BTK surrogate PLCγ2; and 3) BTK occupancy. […] In this instance, BTK occupancy was chosen and is described below.
Compounds of this invention were assayed in Ramos human Burkitt lymphoma cells. Ramos cells were grown in suspension in T175 flasks, spun down, resuspended to a concentration of 2×10^6 cells per mL in serum-free media and incubated for 1 hour. Compound was added to Ramos cells to a final concentration of 500, 166.7, 55.6, 18.5, 6.2, 2.1, and 0.7 nM. Ramos cells were incubated with compound for 1 hour, washed with PBS and lysed in 1004 of BioRad lysis Buffer. Cell lysates were incubated with a biotinylated covalent probe (compound 1-215 disclosed in U.S. published application number 2010/0029610, incorporated by reference in its entirety) at a final concentration of 1 μM in a PBS, 0.05% Tween-20, 1% BSA solution for 1 h at room temperature. Standards and samples were transferred to a streptavidin-coated 96-well ELISA plate and mixed while shaking for 1 h at room temperature. The α-Btk antibody (BD 611116, 1:1000 dilution in PBS+0.05% Tween-20+0.5% BSA) was then added and incubated for 1 h at room temperature. After wash, goat α-mouse-HRP (1:5000 dilution in PBS+0.05% Tween-20+0.5% BSA) was added and incubated for 1 h at room temperature. The ELISA was developed with addition of tetramethyl benzidine (TMB) followed by Stop Solution and read at OD 450 nm. The standard curve (11.7-3000 pg/μL) was generated with human full-length recombinant Btk protein and plotted using a 4 parameter curve fit in Gen5 software. Uninhibited Btk detected from samples was normalized to μg total protein as determined by BCA protein analysis (Pierce Cat. 23225).
The results of this assay show the concentration of compound producing 50% occupancy of BTK. This level of occupancy empirically translates to a level of 50% inhibition of BTK activity (both as measured by autophosphorylation and by phosphorylation of PLCγ2). […] The compound numbers correspond to the compound numbers in the examples.

activated BTK enzyme = biological target: T2, activated BTK enzyme (Homo sapiens, UniProt Q06187); assay: Omnia assay for potency assessment against BTK; type: biochemical; settings: BTK inhibition assay; [BTK]=5 nM, [ATP]=40 μM, [Y5-Sox]=10 μM
T2 construct: purchased Life Technologies PV3363
T2 sequence (Q06187 whole entry): as above
Description: Omnia Assay Protocol for Potency Assessment Against BTK
The protocol below describes an assay to measure potency of compounds against the activated BTK enzyme. The mechanics of the assay platform are best described by the vendor (Life Technologies, Carlsbad, Calif.) on their website at the following URLs: www.lifetechnologies.com/us/en/home/life-science/drug-discovery/target-and-lead-identification-and-validation/kinasebiology/kinase-activity-assays/omnia-kinase-assays/omnia-kinase-principle.html and tools.lifetechnologies.com/content/sfs/manuals/omnia_kinase_assay_man.pdf
Briefly, 10× stocks of BTK (PV3363) from Life Technologies, 1.13×ATP (AS00lA) and Sox conjugated peptide substrates, Y5-Sox, (KZN305l) were prepared in 1× kinase reaction buffer consisting of 20 mM Tris, pH 7.5, 5 mM MgCl2, 1 mM EGTA, 5 mM (3-glycerophosphate, 5% glycerol (10× stock, KB002A) and 0.2 mM DTT (DS00lA). 5 μL of each enzyme were pre-incubated in a Corning (#3574) 384-well, white, non-binding surface microtiter plate (Corning, N.Y.) for 30 min. at room temperature with a 0.5 μL volume of 50% DMSO or serially diluted compounds prepared in 50% DMSO. Kinase reactions were started with the addition of […] of the ATP/Tyr-Sox peptide substrate Y5 mix and monitored every 71 seconds for 60 minutes at λex360/λem485 in a Synergy4 plate reader from BioTek (Winooski, Vt.). At the conclusion of each assay, progress curves from each well were examined for linear reaction kinetics and fit statistics (R2, 95% confidence interval, absolute sum of squares). Initial velocity (0 minutes to ˜30 minutes) from each reaction was determined from the slope of a plot of relative fluorescence units vs time (minutes) and then plotted against inhibitor concentration to estimate IC50 from log [Inhibitor] vs Response, Variable Slope model in GraphPad Prism from GraphPad Software (San Diego, Calif.).
Reagent conditions for the assay are:
[BTK]=5 nM, [ATP]=40 μM, [Y5-Sox]=10 μM (ATP KMapp˜36 μM).
The compound numbers correspond to the compound numbers in the examples.

EC50 [1] | IC50 (activated BTK enzyme) | Structure (SMILES)
0.01 to 0.1 µM | < 0.01 µM | C=CC(=O)N1CCC[C@@H](Nc2nc(Nc3ccc4c(c3)CN(CC(F)(F)F)C4)ncc2F)C1 [Compound I-22, (R)-1-(3-((5-fluoro-2-((2-(2,2,2-trifluoroethyl)isoindolin-5-yl)amino)pyrimidin-4-yl)amino)piperidin-1-yl)prop-2-en-1-one]
< 0.01 µM | < 0.01 µM | C=CC(=O)N1CCC[C@@H](Nc2nc(Nc3ccc4c(c3)CN(CCO)C4)ncc2F)C1 [Compound I-23, (R)-1-(3-((5-fluoro-2-((2-(2-hydroxyethyl)isoindolin-5-yl)amino)pyrimidin-4-yl)amino)piperidin-1-yl)prop-2-en-1-one]
0.101 to 1 µM | < 0.01 µM | C=CC(=O)N1CCC[C@@H](Nc2nc(Nc3ccc4c(c3)CN(c3ccc(F)cc3)C4)ncc2F)C1 [Compound I-24, (R)-1-(3-((5-fluoro-2-((2-(4-fluorophenyl)isoindolin-5-yl)amino)pyrimidin-4-yl)amino)piperidin-1-yl)prop-2-en-1-one]
< 0.01 µM | < 0.01 µM | C=CC(=O)N1CCC[C@@H](Nc2nc(Nc3ccc4c(c3)CN(C(C)(C)C)C4)ncc2F)C1 [Compound I-25, (R)-1-(3-((2-((2-(tert-butyl)isoindolin-5-yl)amino)-5-fluoropyrimidin-4-yl)amino)piperidin-1-yl)prop-2-en-1-one]
< 0.01 µM | < 0.01 µM | C=CC(=O)N1CC2(CC(Nc3nc(Nc4ccc5c(c4)CN(C)C5)ncc3F)C2)C1 [Compound I-26, 1-(6-((5-Fluoro-2-((2-methylisoindolin-5-yl)amino)pyrimidin-4-yl)amino)-2-azaspiro[3.3]heptan-2-yl)prop-2-en-1-one]
0.01 to 0.1 µM | < 0.01 µM | C=CC(=O)N1CCC[C@@H](Nc2nc(Nc3ccc4c(c3)CCNC4)ncc2F)C1 [Compound I-27, (R)-1-(3-((5-fluoro-2-((1,2,3,4-tetrahydroisoquinolin-6-yl)amino)pyrimidin-4-yl)amino)piperidin-1-yl)prop-2-en-1-one]
0.01 to 0.1 µM | < 0.01 µM | C=CC(=O)N1CCC[C@@H](Nc2nc(Nc3ccc4c(c3)CCN(C)C4)ncc2F)C1 [Compound I-28, (R)-1-(3-((5-Fluoro-2-((2-methyl-1,2,3,4-tetrahydroisoquinolin-6-yl)amino)-pyrimidin-4-yl)amino)piperidin-1-yl)prop-2-en-1-one]
0.01 to 0.1 µM | < 0.01 µM | C=CC(=O)N1CCC[C@@H](Nc2nc(Nc3ccc4c(c3)CCN(C(C)C)C4)ncc2F)C1 [Compound I-29, (R)-1-(3-((5-Fluoro-2-((2-isopropyl-1,2,3,4-tetrahydroisoquinolin-6-yl)amino)-pyrimidin-4-yl)amino)piperidin-1-yl)prop-2-en-1-one]
0.01 to 0.1 µM | < 0.01 µM | C=CC(=O)N1CCC[C@@H](Nc2nc(Nc3ccc4c(c3)CCN(C(C)=O)C4)ncc2F)C1 [Compound I-30, (R)-1-(3-((2-((2-Acetyl-1,2,3,4-tetrahydroisoquinolin-6-yl)amino)-5-fluoro-pyrimidin-4-yl)amino)piperidin-1-yl)prop-2-en-1-one]
< 0.01 µM | < 0.01 µM | C=CC(=O)N1CCC[C@@H](Nc2nc(Nc3ccc4c(c3)CCN(C3COC3)C4)ncc2F)C1 [Compound I-31, (R)-1-(3-(5-Fluoro-2-(2-(oxetan-3-yl)-1,2,3,4-tetrahydroisoquinolin-6-ylamino)-pyrimidin-4-ylamino)piperidin-1-yl)prop-2-en-1-one]
< 0.01 µM | < 0.01 µM | C=CC(=O)N1CCC[C@@H](Nc2nc(Nc3ccc4c(c3)CCN(CC3COC3)C4)ncc2F)C1 [Compound I-32, (R)-1-(3-(5-Fluoro-2-(2-(oxetan-3-ylmethyl)-1,2,3,4-tetrahydroisoquinolin-6-ylamino)pyrimidin-4-ylamino)piperidin-1-yl)prop-2-en-1-one]
< 0.01 µM | < 0.01 µM | C=CC(=O)N1CCC[C@@H](Nc2nc(Nc3ccc4c(c3)CNCC4)ncc2F)C1 [Compound I-33, (R)-1-(3-(5-fluoro-2-(1,2,3,4-tetrahydroisoquinolin-7-ylamino)pyrimidin-4-ylamino)-piperidin-1-yl)prop-2-en-1-one]
< 0.01 µM | < 0.01 µM | C=CC(=O)N1CCC[C@@H](Nc2nc(Nc3ccc4c(c3)CN(C)CC4)ncc2F)C1 [Compound I-34, (R)-1-(3-((5-Fluoro-2-((2-methyl-1,2,3,4-tetrahydroisoquinolin-7-yl)amino)-pyrimidin-4-yl)amino)piperidin-1-yl)prop-2-en-1-one]
< 0.01 µM | < 0.01 µM | C=CC(=O)N1CCC[C@@H](Nc2nc(Nc3ccc4c(c3)CN(C3COC3)CC4)ncc2F)C1 [Compound I-35, (R)-1-(3-(5-Fluoro-2-(2-(oxetan-3-yl)-1,2,3,4-tetrahydroisoquinolin-7-ylamino)-pyrimidin-4-ylamino)piperidin-1-yl)prop-2-en-1-one]
< 0.01 µM | < 0.01 µM | C=CC(=O)N1CCC[C@@H](Nc2nc(Nc3ccc4c(c3)CN(CC3COC3)CC4)ncc2F)C1 [Compound I-36, (R)-1-(3-(5-Fluoro-2-(2-(oxetan-3-ylmethyl)-1,2,3,4-tetrahydroisoquinolin-7-ylamino)pyrimidin-4-ylamino)piperidin-1-yl)prop-2-en-1-one]
0.101 to 1 µM | < 0.01 µM | C=CC(=O)N1CCC[C@@H](Nc2nc(Nc3cc(F)c4c(c3)CN(C)C4)ncc2F)C1 [Compound I-37, (R)-1-(3-(5-Fluoro-2-(7-fluoro-2-methylisoindolin-5-ylamino)pyrimidin-4-ylamino)piperidin-1-yl)prop-2-en-1-one]
< 0.01 µM | < 0.01 µM | C=CC(=O)N1CCC[C@@H](Nc2nc(Nc3ccc4c(c3)CCCN(C)C4)ncc2F)C1 [Compound I-38, (R)-1-(3-((5-Fluoro-2-((2-methyl-2,3,4,5-tetrahydro-1H-benzo[c]azepin-7-yl)amino)pyrimidin-4-yl)amino)piperidin-1-yl)prop-2-en-1-one]
0.01 to 0.1 µM | < 0.01 µM | C=CC(=O)N1CCC[C@@H](Nc2nc(Nc3ccc4c(c3)CN(CCF)C4)ncc2F)C1 [Compound I-39, (R)-1-(3-((5-Fluoro-2-((2-(2-fluoroethyl)isoindolin-5-yl)amino)pyrimidin-4-yl)amino)piperidin-1-yl)prop-2-en-1-one]
< 0.01 µM | < 0.01 µM | C=CC(=O)N1CCC[C@@H](Nc2nc(Nc3ccc4c(c3)CN(C3(C)CCOCC3)C4)ncc2F)C1 [Compound I-40, (R)-1-(3-(5-Fluoro-2-(2-(4-methyltetrahydro-2H-pyran-4-yl)isoindolin-5-ylamino)pyrimidin-4-ylamino)piperidin-1-yl)prop-2-en-1-one]
0.01 to 0.1 µM | < 0.01 µM | C=CC(=O)N1CCC[C@@H](Nc2nc(Nc3ccc4c(c3)C(C)(C)N(C)C4(C)C)ncc2F)C1 [Compound I-41, (R)-1-(3-(5-Fluoro-2-(1,1,2,3,3-pentamethylisoindolin-5-ylamino)pyrimidin-4-ylamino)piperidin-1-yl)prop-2-en-1-one]
